The target in one data set is T1, DynF (Micromonospora chersina, UniProt B2BM43).
T1 construct: full-length, N-terminal 6xHis tag cleaved with TEV protease (one extra Ser before Met1); E. coli BL21 (DE3); dimer
T1 sequence (B2BM43 1-210): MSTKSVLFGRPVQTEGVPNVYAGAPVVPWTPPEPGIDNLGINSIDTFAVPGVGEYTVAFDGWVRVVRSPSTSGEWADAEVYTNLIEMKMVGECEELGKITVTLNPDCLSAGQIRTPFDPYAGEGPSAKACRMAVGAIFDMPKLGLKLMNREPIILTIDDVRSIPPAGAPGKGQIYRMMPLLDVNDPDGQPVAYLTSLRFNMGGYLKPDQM
Put plainly: X-ray crystal structure ([…] Å); GC-MS of acetonitrile extract. The following applies: co-purified from E. coli; bound inside the beta-barrel cavity of each protomer. Type of data set: binding.

Data set [1] concerns the molecule itself. Put plainly: crystal structure; sitting-drop vapor diffusion, 293 K, 25%(w/v) PEG 1500, 0.1 M PCB buffer pH 7.0; space group C222(1); two molecules in the asymmetric unit; palmitic acid bound.

Take `CCCCCCCCCCCCCCCC(=O)O` [palmitic acid]: the “X-ray crystal structure (1.50 Å); GC-MS of acetonitrile extract” value on DynF is reported as “confirmed by gas chromatography–mass spectrometry (GC-MS) as palmitic acid”.

B1: DynF from Micromonospora chersina ATCC53710 (natural protein)
chain: T1 sequence (B2BM43 1-210)
notes: DynF, Micromonospora chersina ATCC53710, protein of unknown function from the dynemicin biosynthetic gene cluster; GenBank ACB47058.1; the insert primers run from the ATG to the TGA stop codon; The tag mgsshhhhhhenlyfq/s was cut by TEV protease at the slash, so one serine of the tag stays before Met1 (211 residues a chain; 418 of 422 residues built for two chains); Vector pNIC28-Bsa4 (Addgene …)
In the case of B1, the binding result in data set [1] is on record as “binds”.

The values are drawn from publication PMC8725005, “The crystal structure of DynF from the dynemicin-biosynthesis pathway of Micromonospora chersina” (Acta Crystallographica. Section F, Structural Biology …, 2022).
